According to US20130053381A1, “2,4-DIOXO-1,4-DIHYDRO-2H-QUINAZOLIN-3-YL-SULFONAMIDE DERIVATIVES” (NOVARTIS AG, priority 2010, published 2013):

Each molecule was assayed on OF1 mice (assay: Maximal electroshock test (MES Test)). Conditions: Mus musculus, po; 50 mg/kg, p.o., pre-treatment time −0.5 h (footnote d); read-out: %-Protection.
Type: in vivo
Summary of the method: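 Compound given p.o. (typically 50 mg/kg) 1 h before tonic-clonic convulsions were induced via temporal electrodes (50 Hz, 18 mA, 0.2 s); seizure lasting 3 s or less counted as protection. Read-out is percent protected of five mice per condition; ED50 calculated, blood exposure sampled after shock.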

Row | SMILES | responders at 50 mg/kg
1 | CC(=O)N(n1c(=O)[nH]c2cc(C(F)(F)F)c([C@H]3CCCO3)cc2c1=O)S(C)(=O)=O [Example 10.01, N-Acetyl-N—((R)-2,4-dioxo-6-tetrahydro-furan-2-yl-7-trifluoromethyl-1,4-dihydro-2H-quinazolin-3-yl)-methanesulfonamide] | 40%
2 | CCC(=O)N(n1c(=O)[nH]c2cc(C(F)(F)F)c([C@H]3CCCO3)cc2c1=O)S(C)(=O)=O [Example 10.02, N—((R)-2,4-Dioxo-6-tetrahydro-furan-2-yl-7-trifluoromethyl-1,4-dihydro-2H-quinazolin-3-yl)-N-propionyl-methanesulfonamide] | 60%
3 | CCCC(=O)N(n1c(=O)[nH]c2cc(C(F)(F)F)c([C@H]3CCCO3)cc2c1=O)S(C)(=O)=O [Example 10.03] | 60%

Same assay, conditions: Mus musculus, po; 50 mg/kg, p.o., pre-treatment time −1 h; read-out: %-Protection

Row | SMILES | responders at 50 mg/kg
4 | CCOC(=O)N(n1c(=O)[nH]c2cc(C(F)(F)F)c(-n3ccnc3C)cc2c1=O)S(C)(=O)=O [Example 7.01, Methanesulfonyl-[6-(2-methyl-imidazol-1-yl)-2,4-dioxo-7-trifluoromethyl-1,4-dihydro-2H-quinazolin-3-yl]-carbamic acid ethyl ester] | 40%
5 | CCCC(=O)N(n1c(=O)[nH]c2cc(C(F)(F)F)c(-n3ccnc3C)cc2c1=O)S(C)(=O)=O [Example 7.02, N-Butyryl-N-[6-(2-methyl-imidazol-1-yl)-2,4-dioxo-7-trifluoromethyl-1,4-dihydro-2H-quinazolin-3-yl]-methanesulfonamide] | 20%
6 | CCCOC(=O)N(n1c(=O)[nH]c2cc(C(F)(F)F)c(-n3ccnc3C)cc2c1=O)S(C)(=O)=O [Example 7.03, Methanesulfonyl-[6-(2-methyl-imidazol-1-yl)-2,4-dioxo-7-trifluoromethyl-1,4-dihydro-2H-quinazolin-3-yl]-carbamic acid propyl ester] | 40%
7 | Cc1nccn1-c1cc2c(=O)n(N(C(=O)OCC(C)C)S(C)(=O)=O)c(=O)[nH]c2cc1C(F)(F)F [Example 7.04, Methanesulfonyl-[6-(2-methyl-imidazol-1-yl)-2,4-dioxo-7-trifluoromethyl-1,4-dihydro-2H-quinazolin-3-yl]-carbamic acid isobutyl ester] | 40%
8 | CCC(=O)N(n1c(=O)[nH]c2cc(C(F)(F)F)c(-n3cccc3)cc2c1=O)S(C)(=O)=O [Example 8.01, N-(2,4-Dioxo-6-pyrrol-1-yl-7-trifluoromethyl-1,4-dihydro-2H-quinazolin-3-yl)-N-propionyl-methanesulfonamide] | 20%
9 | CCCC(=O)N(n1c(=O)[nH]c2cc(C(F)(F)F)c(-n3cccc3)cc2c1=O)S(C)(=O)=O [Example 8.02, N-Butyryl-N-(2,4-dioxo-6-pyrrol-1-yl-7-trifluoromethyl-1,4-dihydro-2H-quinazolin-3-yl)-methanesulfonamide] | 20%
10 | CC(=O)OCC(=O)N(n1c(=O)[nH]c2cc(C(F)(F)F)c(-n3cccc3)cc2c1=O)S(C)(=O)=O [Example 8.03, Acetic acid 2-[(2,4-dioxo-6-pyrrol-1-yl-7-trifluoromethyl-1,4-dihydro-2H-quinazolin-3-yl)-methanesulfonyl-amino]-2-oxo-ethyl ester] | 40%
11 | COC(=O)N(n1c(=O)[nH]c2cc(C(F)(F)F)c(-n3cccc3)cc2c1=O)S(C)(=O)=O [Example 8.04, (2,4-Dioxo-6-pyrrol-1-yl-7-trifluoromethyl-1,4-dihydro-2H-quinazolin-3-yl)-methanesulfonyl-carbamic acid methyl ester] | 20%
12 | CCOC(=O)N(n1c(=O)[nH]c2cc(C(F)(F)F)c(-n3cccc3)cc2c1=O)S(C)(=O)=O [Example 8.05, (2,4-Dioxo-6-pyrrol-1-yl-7-trifluoromethyl-1,4-dihydro-2H-quinazolin-3-yl)-methanesulfonyl-carbamic acid ethyl ester] | 60%
13 | CCCCC(=O)N(n1c(=O)[nH]c2cc(C(F)(F)F)c(-n3cnnc3)cc2c1=O)S(C)(=O)=O [Example 9.03, N-(2,4-Dioxo-6-[1,2,4]triazol-4-yl-7-trifluoromethyl-1,4-dihydro-2H-quinazolin-3-yl)-N-pentanoyl-methanesulfonamide] | 20%
14 | CC(=O)N(n1c(=O)[nH]c2cc(C(F)(F)F)c([C@H]3CCCO3)cc2c1=O)S(C)(=O)=O [Example 10.01, N-Acetyl-N—((R)-2,4-dioxo-6-tetrahydro-furan-2-yl-7-trifluoromethyl-1,4-dihydro-2H-quinazolin-3-yl)-methanesulfonamide] | 80%
15 | CCC(=O)N(n1c(=O)[nH]c2cc(C(F)(F)F)c([C@H]3CCCO3)cc2c1=O)S(C)(=O)=O [Example 10.02, N—((R)-2,4-Dioxo-6-tetrahydro-furan-2-yl-7-trifluoromethyl-1,4-dihydro-2H-quinazolin-3-yl)-N-propionyl-methanesulfonamide] | 60%
16 | CCCC(=O)N(n1c(=O)[nH]c2cc(C(F)(F)F)c([C@H]3CCCO3)cc2c1=O)S(C)(=O)=O [Example 10.03] | 100%
17 | COC(=O)N(n1c(=O)[nH]c2cc(C(F)(F)F)c([C@H]3CCCO3)cc2c1=O)S(C)(=O)=O [Example 10.04, Methanesulfonyl-N—((R)-2,4-dioxo-6-tetrahydro-furan-2-yl-7-trifluoromethyl-1,4-dihydro-2H-quinazolin-3-yl)-carbamic acid methyl ester] | 20%
18 | CCOC(=O)N(n1c(=O)[nH]c2cc(C(F)(F)F)c([C@H]3CCCO3)cc2c1=O)S(C)(=O)=O [Example 10.05, Methanesulfonyl-N—((R)-2,4-dioxo-6-tetrahydro-furan-2-yl-7-trifluoromethyl-1,4-dihydro-2H-quinazolin-3-yl)-carbamic acid ethyl ester] | 40%
19 | CCCCOC(=O)N(n1c(=O)[nH]c2cc(C(F)(F)F)c([C@H]3CCCO3)cc2c1=O)S(C)(=O)=O [Example 10.06, Methanesulfonyl-N—((R)-2,4-dioxo-6-tetrahydro-furan-2-yl-7-trifluoromethyl-1,4-dihydro-2H-quinazolin-3-yl)-carbamic acid butyl ester] | 40%
20 | COCCOC(=O)N(n1c(=O)[nH]c2cc(C(F)(F)F)c([C@H]3CCCO3)cc2c1=O)S(C)(=O)=O [Example 10.07, Methanesulfonyl-N—((R)-2,4-dioxo-6-tetrahydro-furan-2-yl-7-trifluoromethyl-1,4-dihydro-2H-quinazolin-3-yl)-carbamic acid 2-methoxy-ethyl ester] | 60%
21 | CC(C)COC(=O)N(n1c(=O)[nH]c2cc(C(F)(F)F)c([C@H]3CCCO3)cc2c1=O)S(C)(=O)=O [Example 10.08, Methanesulfonyl-N—((R)-2,4-dioxo-6-tetrahydro-furan-2-yl-7-trifluoromethyl-1,4-dihydro-2H-quinazolin-3-yl)-carbamic acid isobutyl ester] | 20%
22 | CCCCCC(=O)N(n1c(=O)[nH]c2cc(C(F)(F)F)c([C@H]3CCCO3)cc2c1=O)S(C)(=O)=O [Example 10.09, N—((R)-2,4-Dioxo-6-tetrahydro-furan-2-yl-7-trifluoromethyl-1,4-dihydro-2H-quinazolin-3-yl)-N-hexanoyl-methanesulfonamide] | 60%
23 | CCOC(=O)CCC(=O)N(n1c(=O)[nH]c2cc(C(F)(F)F)c([C@H]3CCCO3)cc2c1=O)S(C)(=O)=O [Example 10.10] | 20%
24 | CCCCC(=O)N(n1c(=O)[nH]c2cc(C(F)(F)F)c([C@H]3CCCO3)cc2c1=O)S(C)(=O)=O [Example 10.11, N—((R)-2,4-Dioxo-6-tetrahydro-furan-2-yl-7-trifluoromethyl-1,4-dihydro-2H-quinazolin-3-yl)-N-pentanoyl-methanesulfonamide] | 20%
25 | CCC(OC)c1cc2c(=O)n(N(C(=O)OCCOC)S(C)(=O)=O)c(=O)[nH]c2cc1C(F)(F)F (centres unmarked) [Example 11.01, Methanesulfonyl-[6-(1-methoxy-propyl)-2,4-dioxo-7-trifluoromethyl-1,4-dihydro-2H-quinazolin-3-yl]-carbamic acid 2-methoxy-ethyl ester] | 60%
26 | CCC(=O)N(n1c(=O)[nH]c2cc(C(F)(F)F)c(C(CC)OC)cc2c1=O)S(C)(=O)=O (centres unmarked) [Example 11.02, N-[6-(1-Methoxy-propyl)-2,4-dioxo-7-trifluoromethyl-1,4-dihydro-2H-quinazolin-3-yl]-N-propionyl-methanesulfonamide] | 100%
27 | CCOC(=O)N(n1c(=O)[nH]c2cc(C(F)(F)F)c(C(CC)OC)cc2c1=O)S(C)(=O)=O (centres unmarked) [Example 11.03, Methanesulfonyl-[6-(1-methoxy-propyl)-2,4-dioxo-7-trifluoromethyl-1,4-dihydro-2H-quinazolin-3-yl]-carbamic acid ethyl ester] | 80%
28 | CCCOC(=O)N(n1c(=O)[nH]c2cc(C(F)(F)F)c(C(CC)OC)cc2c1=O)S(C)(=O)=O (centres unmarked) [Example 11.04, Methanesulfonyl-[6-(1-methoxy-propyl)-2,4-dioxo-7-trifluoromethyl-1,4-dihydro-2H-quinazolin-3-yl]-carbamic acid propyl ester] | 20%
29 | CCCCCC(=O)N(n1c(=O)[nH]c2cc(C(F)(F)F)c(C(CC)OC)cc2c1=O)S(C)(=O)=O (centres unmarked) [Example 11.05, N-Hexanoyl-N-[6-(1-Methoxy-propyl)-2,4-dioxo-7-trifluoromethyl-1,4-dihydro-2H-quinazolin-3-yl]-methanesulfonamide] | 80%

Same assay, conditions: Mus musculus, po; 50 mg/kg, p.o., pre-treatment time −2 h (footnote a); read-out: %-Protection

Row | SMILES | responders at 50 mg/kg
30 | CC(C)CC(=O)N(n1c(=O)[nH]c2cc(C(F)(F)F)c(-n3cnnc3)cc2c1=O)S(C)(=O)=O [Example 9.01, N-(2,4-Dioxo-6-[1,2,4]triazol-4-yl-7-trifluoromethyl-1,4-dihydro-2H-quinazolin-3-yl)-N-(3-methyl-butyryl)-methanesulfonamide] | 40%
31 | CCCCCC(=O)N(n1c(=O)[nH]c2cc(C(F)(F)F)c(-n3cnnc3)cc2c1=O)S(C)(=O)=O [Example 9.02, N-(2,4-Dioxo-6-[1,2,4]triazol-4-yl-7-trifluoromethyl-1,4-dihydro-2H-quinazolin-3-yl)-N-hexanoyl-methanesulfonamide] | 20%
32 | CCCC(=O)N(n1c(=O)[nH]c2cc(C(F)(F)F)c(-n3cnnc3)cc2c1=O)S(C)(=O)=O [Example 9.04, N-Butyryl-N-(2,4-dioxo-6-[1,2,4]triazol-4-yl-7-trifluoromethyl-1,4-dihydro-2H-quinazolin-3-yl)-methanesulfonamide] | 20%
